From ChEMBL document CHEMBL5325504, “Bioactive Indole Alkaloid from Aspergillus amoenus TJ507 That Ameliorates Hepatic Ischemia/Reperfusion Injury” (J Nat Prod, 2023) come the findings set out here.

Molecules are shown by their SMILES. Calls of active or inactive are those of the source. The calls are words filed in the database; no cut-off is given here.

Data set [1] has as its system AML12. Put plainly: Cytoprotective activity against CoCl2-induced mouse AML12 cells assessed as increase in cell survival rate by CCK8 method. The format is functional, cell-based. On the technique in general: Tetrazolium assays rely on reduction of a dye to a coloured formazan, in cell work by metabolically active cells.
Data set [2] concerns Mus musculus. Put plainly: Hepatoprotective activity against ischemia-reperfusion injury mouse model assessed as reduction in LDH level in serum at 10 mg/kg, ip administered once daily for 3 days. Conditions: time 3.0 day. It is filed as functional, organism-based.
The species entered for data set [3] is Mus musculus. Put plainly: Hepatoprotective activity against ischemia-reperfusion injury mouse model assessed as reduction in MPO expression level by IHC staining based analysis. The format is functional, organism-based.
The test system of data set [4] is Mus musculus. Put plainly: Hepatoprotective activity against ischemia-reperfusion injury mouse model assessed as reduction in AST level in serum at 10 mg/kg, ip administered once daily for 3 days. The format is functional, organism-based. The following applies: time 3.0 day.
For data set [5], the species on record is Mus musculus. Put plainly: Hepatoprotective activity against ischemia-reperfusion injury mouse model assessed as reduction in cleaved caspase-3 by IHC staining based analysis. The format is functional, organism-based.
Data set [6] is filed under the species Mus musculus. Put plainly: Hepatoprotective activity against ischemia-reperfusion injury mouse model assessed as reduction in necrocytosis by H and E staining based analysis. The format is functional, organism-based.
Data set [7] relates to Mus musculus. Put plainly: Hepatoprotective activity against ischemia-reperfusion injury mouse model assessed as reduction in ALT level in serum at 10 mg/kg, ip administered once daily for 3 days. The format is functional, organism-based. The following applies: time 3.0 day.
The species entered for data set [8] is Mus musculus. Put plainly: Hepatoprotective activity against ischemia-reperfusion injury mouse model assessed as reduction in liver ecchymosis by H and E staining based analysis. It is filed as functional, organism-based.
For data set [9], the species on record is Mus musculus. Put plainly: Hepatoprotective activity against ischemia-reperfusion injury mouse model assessed as reduction in translocation of HMGB1 from nucleus to cytoplasm by IHC staining based analysis. It is filed as functional, organism-based.
Data set [10] is filed under the species Mus musculus. Put plainly: Hepatoprotective activity against ischemia-reperfusion injury mouse model assessed as reduction in TUNEL positive cells by TUNEL staining based analysis. It is filed as functional, organism-based.
In data set [11] the test system is AML12. Put plainly: Cytotoxicity against mouse AML12 cells assessed as reduction in cell survival rate at by CCK8 assay. It is filed as toxicity, cell-based.
Data set [12] deals with AML12. Put plainly: Cytoprotective activity against CoCl2-induced mouse AML12 cells assessed as increased cell survival rate at 1.25 to 10 uM by CCK8 assay. It is filed as functional, cell-based. The following applies: dose 1.25-10 µM.
The species named for data set [13] is Mus musculus. Put plainly: Hepatoprotective activity against ischemia-reperfusion injury mouse model assessed as reduction in leukocyte infiltration by H and E staining based analysis. It is filed as functional, organism-based.

For `C/C=C1\NC(=O)[C@H](Cc2c[nH]c3ccccc23)N(C)C1=O`, the result with AML12 [1] was inactive.

Regarding `C=CC(C)(C)[C@@]1(C[C@@H]2NC(=O)[C@]3(OC)CCCN3C2=O)C(=O)Nc2c1ccc1c2C=CC(C)(C)O1`, the result with AML12 [1] was inactive.

`CC1(C)C=Cc2c(ccc3c2N(O)C(=O)[C@@]32C[C@@]34NC(=O)[C@]5(CCCN5C3=O)C[C@H]4C2(C)C)O1`: the result in the data set on AML12 [1] was inactive.

Turning to `C=CC(C)(C)[C@]1(C[C@@H]2NC(=O)[C@]3(OC)CCCN3C2=O)C(=O)Nc2c1ccc1c2C=CC(C)(C)O1` [NOTOAMIDE Q], the result in the data set with Mus musculus [2], in the data set filed under Mus musculus [3], with Mus musculus [4], in the data set listed under Mus musculus [5], in the data set filed under Mus musculus [6] and in the data set on Mus musculus [7] was Active. The outcome in the data set on AML12 [1], in the data set filed under Mus musculus [8], in the data set listed under Mus musculus [9], in the data set listed under Mus musculus [10], with AML12 [12] and in the data set filed under Mus musculus [13] was Active. Also, in the data set with AML12 [11], the Activity entry is recorded as “Non-Toxic”.

Turning to `C=CC(C)(C)[C@]1(C[C@@H]2NC(=O)[C@@H]3CCCN3C2=O)C(=O)Nc2c1ccc(O)c2CC=C(C)C`, the result with AML12 [1] was inactive.

Turning to `CC1(C)C=Cc2c(ccc3c2NC(=O)[C@@]32C[C@@]34NC(=O)[C@]5(CCCN5C3=O)C[C@H]4C2(C)C)O1`, the result in the data set with AML12 [1] was inactive.

As to `C=CC(C)(C)C(=O)Nc1c(C(=O)C[C@@H]2NC(=O)[C@@H]3CCCN3C2=O)ccc(O)c1CC=C(C)C`, in the data set with AML12 [1], the outcome was inactive.
